Laboratory results published in ChEMBL document CHEMBL1201862, “PubChem BioAssay data set” (2004).
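Five concentrations, 48 hours, 96-well plates. GI50: concentration for 50% inhibition of growth.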 Calls of active or inactive are those of the source. No stated cut-off is given here; in the data, active = GI50 up to about 1.1 µM and inactive = higher.

Assays:
Assay in all cases: NCI anticancer screen, dose series, 48 h
DU-145 = tested on: DU-145
Hs-578T = tested on: Hs-578T
786-0 = tested on: 786-0
SW-620 = tested on: SW-620
EKVX = tested on: EKVX
KM12 = tested on: KM12
HT-29 = tested on: HT-29
HCT-15 = tested on: HCT-15
LOX IMVI = tested on: LOX IMVI
SK-OV-3 = tested on: SK-OV-3
SK-MEL-5 = tested on: SK-MEL-5
A498 = tested on: A498
RXF 393 = tested on: RXF 393
OVCAR-3 = tested on: OVCAR-3
OVCAR-4 = tested on: OVCAR-4
CCRF-CEM = tested on: CCRF-CEM
SK-MEL-28 = tested on: SK-MEL-28
M14 = tested on: M14
SF-268 = tested on: SF-268
MDA-N = tested on: MDA-N
SF-295 = tested on: SF-295
MDA-MB-435 = tested on: MDA-MB-435
HCC 2998 = tested on: HCC 2998
COLO 205 = tested on: COLO 205
NCI-H460 = tested on: NCI-H460
RPMI-8226 = tested on: RPMI-8226
MCF7 = tested on: MCF7
Malme-3M = tested on: Malme-3M
BT-549 = tested on: BT-549
ACHN = tested on: ACHN
SNB-19 = tested on: SNB-19
OVCAR-5 = tested on: OVCAR-5
MOLT-4 = tested on: MOLT-4
NCI/ADR-RES = tested on: NCI/ADR-RES
CAKI-1 = tested on: CAKI-1
NCI-H23 = tested on: NCI-H23
SF-539 = tested on: SF-539
HL-60 = tested on: HL-60
PC-3 = tested on: PC-3
SN12C = tested on: SN12C
TK-10 = tested on: TK-10
A549 = tested on: A549
NCI-H522 = tested on: NCI-H522
U-251 = tested on: U-251
UACC-62 = tested on: UACC-62
HCT-116 = tested on: HCT-116
IGROV-1 = tested on: IGROV-1
HOP-62 = tested on: HOP-62
OVCAR-8 = tested on: OVCAR-8
HOP-92 = tested on: HOP-92
SK-MEL-2 = tested on: SK-MEL-2
MDA-MB-231 = tested on: MDA-MB-231
UACC-257 = tested on: UACC-257
T47D = tested on: T47D
NCI-H226 = tested on: NCI-H226
UO-31 = tested on: UO-31
SNB-75 = tested on: SNB-75
K562 = tested on: K562

## CC(C)(O)C1CC[C@]2(C)[C@H]3CC[C@@H]4[C@@]5(C)CCCC(C)(C)[C@@H]5CC[C@@]4(C)[C@]3(C)CC[C@@H]12 (some centres not stated)
DU-145
  GI50: > 100 µM (inactive)
Hs-578T
  GI50: > 100 µM (inactive)
786-0
  GI50: > 100 µM (inactive)
SW-620
  GI50: > 100 µM (inactive)
EKVX
  GI50: > 100 µM (inactive)
KM12
  GI50: > 100 µM (inactive)
HT-29
  GI50: > 100 µM (inactive)
HCT-15
  GI50: > 100 µM
LOX IMVI
  GI50: > 100 µM (inactive)
SK-OV-3
  GI50: > 100 µM (inactive)
SK-MEL-5
  GI50: > 100 µM (inactive)
A498
  GI50: > 100 µM (inactive)
RXF 393
  GI50: > 100 µM (inactive)
OVCAR-3
  GI50: > 100 µM (inactive)
OVCAR-4
  GI50: > 100 µM (inactive)
CCRF-CEM
  GI50: > 100 µM (inactive)
SK-MEL-28
  GI50: > 100 µM (inactive)
M14
  GI50: > 100 µM (inactive)
SF-268
  GI50: > 100 µM (inactive)
MDA-N
  GI50: > 100 µM (inactive)
SF-295
  GI50: > 100 µM (inactive)
MDA-MB-435
  GI50: > 100 µM (inactive)
HCC 2998
  GI50: > 100 µM (inactive)
COLO 205
  GI50: > 100 µM (inactive)
NCI-H460
  GI50: > 100 µM (inactive)
RPMI-8226
  GI50: > 100 µM (inactive)
MCF7
  GI50: > 100 µM (inactive)
Malme-3M
  GI50: > 100 µM (inactive)
BT-549
  GI50: > 100 µM (inactive)
ACHN
  GI50: > 100 µM (inactive)
SNB-19
  GI50: > 100 µM (inactive)
OVCAR-5
  GI50: > 100 µM (inactive)
MOLT-4
  GI50: > 100 µM (inactive)
NCI/ADR-RES
  GI50: > 100 µM (inactive)
CAKI-1
  GI50: > 100 µM (inactive)
NCI-H23
  GI50: > 100 µM (inactive)
SF-539
  GI50: > 100 µM (inactive)
HL-60
  GI50: > 100 µM (inactive)
PC-3
  GI50: > 100 µM (inactive)
SN12C
  GI50: > 100 µM (inactive)
TK-10
  GI50: > 100 µM (inactive)
A549
  GI50: > 100 µM (inactive)
NCI-H522
  GI50: > 100 µM (inactive)
U-251
  GI50: > 100 µM (inactive)
UACC-62
  GI50: > 100 µM (inactive)
HCT-116
  GI50: > 100 µM (inactive)
IGROV-1
  GI50: > 100 µM (inactive)
HOP-62
  GI50: > 100 µM (inactive)
OVCAR-8
  GI50: > 100 µM (inactive)
HOP-92
  GI50: > 100 µM (inactive)
SK-MEL-2
  GI50: > 100 µM (inactive)
MDA-MB-231
  GI50: > 100 µM (inactive)
UACC-257
  GI50: > 100 µM (inactive)
T47D
  GI50: > 100 µM (inactive)

## Nc1nc(Cl)c(/N=N/c2ccc(Cl)cc2)c(NCC2(CO)CCC(CCc3ccccc3)C2)n1 (configuration not stated)
DU-145
  GI50: 13.2 µM (inactive)
Hs-578T
  GI50: 8.51 µM (inactive)
786-0
  GI50: 6.32 µM (inactive)
SW-620
  GI50: 3.92 µM (inactive)
EKVX
  GI50: 8.79 µM (inactive)
KM12
  GI50: 13.2 µM (inactive)
HT-29
  GI50: 12.1 µM (inactive)
HCT-15
  GI50: 6.87 µM
LOX IMVI
  GI50: 1.79 µM (inactive)
SK-OV-3
  GI50: 12 µM (inactive)
SK-MEL-5
  GI50: 1.37 µM (inactive)
A498
  GI50: 13.2 µM (inactive)
RXF 393
  GI50: 7.8 µM (inactive)
OVCAR-3
  GI50: 11 µM (inactive)
OVCAR-4
  GI50: 1.5 µM (inactive)
NCI-H226
  GI50: 1.91 µM (inactive)
CCRF-CEM
  GI50: 1.21 µM (inactive)
SK-MEL-28
  GI50: 14.2 µM (inactive)
M14
  GI50: 8.81 µM (inactive)
SF-268
  GI50: 6.22 µM (inactive)
MDA-N
  GI50: 11.4 µM (inactive)
SF-295
  GI50: 11 µM (inactive)
MDA-MB-435
  GI50: 9.98 µM (inactive)
HCC 2998
  GI50: 5.97 µM (inactive)
COLO 205
  GI50: 4.86 µM (inactive)
NCI-H460
  GI50: 12.7 µM (inactive)
UO-31
  GI50: 2.1 µM (inactive)
RPMI-8226
  GI50: 12.1 µM (inactive)
MCF7
  GI50: 5.62 µM (inactive)
Malme-3M
  GI50: 14.8 µM (inactive)
BT-549
  GI50: 6.81 µM (inactive)
ACHN
  GI50: 5.97 µM (inactive)
SNB-19
  GI50: 19.5 µM (inactive)
SNB-75
  GI50: 13.6 µM (inactive)
OVCAR-5
  GI50: 15.4 µM (inactive)
MOLT-4
  GI50: 1.29 µM (inactive)
NCI/ADR-RES
  GI50: 4.56 µM (inactive)
CAKI-1
  GI50: 2.8 µM (inactive)
NCI-H23
  GI50: 1.26 µM (inactive)
K562
  GI50: 0.841 µM (active)
SF-539
  GI50: 14.2 µM (inactive)
HL-60
  GI50: 4.14 µM (inactive)
PC-3
  GI50: 12.2 µM (inactive)
SN12C
  GI50: 9.46 µM (inactive)
TK-10
  GI50: 13.8 µM (inactive)
A549
  GI50: 14.1 µM (inactive)
NCI-H522
  GI50: 1.31 µM (inactive)
U-251
  GI50: 14.1 µM (inactive)
UACC-62
  GI50: 10.4 µM (inactive)
HCT-116
  GI50: 6.11 µM (inactive)
IGROV-1
  GI50: 6.22 µM (inactive)
HOP-62
  GI50: 13.7 µM (inactive)
OVCAR-8
  GI50: 5.4 µM (inactive)
HOP-92
  GI50: 11.1 µM (inactive)
SK-MEL-2
  GI50: 13.6 µM (inactive)
MDA-MB-231
  GI50: 12.2 µM (inactive)
UACC-257
  GI50: 10.6 µM (inactive)
T47D
  GI50: 3.94 µM (inactive)
